# Measured values from patent US20120122727A1, “IN VITRO METHOD FOR PREDICTING WHETHER A COMPOUND IS GENOTOXIC IN VIVO” (priority 2009, published 2012).
# Experiments:
# [1] = tested on: primary mouse hepatocytes; experiment: Gene expression in primary mouse hepatocytes, GTX vs non-GTX (four-gene classifier, 24 h)
# Description: Hepatocyte cells were incubated and exposed to a compound for 24 h before being harvested for RNA isolation.
# The results of the gene expression analysis may then be fed into a statistical software package such as R, Splus, or Microsoft Excel. […] If none or only one of these criteria were met, no point was scored.
# For each of the four genes mentioned in the table (1700007K13RIK, GAS2L3, SPC25, DDIT4L), a statistical comparison was made between the normalized expression data for these genes. […] If none or only one of these criteria were met, no point was scored.
# For each compound, the sum of the scores for four genes is taken. If this score is 0, a compound can be believed not to be genotoxic. If this score is 1, 2, 3 or 4, a compound is genotoxic.
# If none or only one of these criteria were met, no point was scored.
# [2] = tested on: primary mouse hepatocytes; experiment: Gene expression (Affymetrix Mouse Genome 430 2.0) in primary mouse hepatocytes, true vs false GTX, 24 h and 48 h
substance,measurement,setting,value
Aflatoxin B1 [AFB1],Ratios of gene expression treated/untreated 1700007K13RIK,[1],2.912
same,Ratios of gene expression treated/untreated DDIT4L,[1],1.616
same,Ratios of gene expression treated/untreated GAS2L3,[1],1.234
same,Ratios of gene expression treated/untreated SPC25,[1],1.523
same,Total score,[1],4
same,score 1700007K13RIK,[1],1
same,score DDIT4L,[1],1
same,score GAS2L3,[1],1
same,score SPC25,[1],1
same,Gene expression AA561726 average,[2],−1.481
same,Gene expression AF000969 average,[2],−2.346
same,Gene expression AF022072 average,[2],−0.9913
same,Gene expression AF033112 average,[2],1.033
same,Gene expression AF055573 average,[2],−2.3744
same,Gene expression AF069954 average,[2],0.2361
same,Gene expression AF297615 average,[2],2.175
same,Gene expression AF335325 average,[2],1.3645
same,Gene expression AI594683 average,[2],1.508
same,Gene expression AI747296 average,[2],−1.533
same,Gene expression AK005731 average,[2],2.2191
same,Gene expression AK007854 average,[2],1.5416
same,Gene expression AK010447 average,[2],−1.2768
same,Gene expression AK010738 average,[2],0.6579
same,Gene expression AK014608 average,[2],1.186
same,Gene expression AK017734 average,[2],0.4796
same,Gene expression AK018383 average,[2],0.4069
same,Gene expression AK019979 average,[2],−2.271
same,Gene expression AV095209 average,[2],−0.6169
same,Gene expression AV141095 average,[2],−1.192
same,Gene expression AV173869 average,[2],−0.8814
same,Gene expression AV216768 average,[2],−1.282
same,Gene expression AV219418 average,[2],0.8603
same,Gene expression AV221299 average,[2],−0.7873
same,Gene expression AV246296 average,[2],1.098
same,Gene expression AV251625 average,[2],0.5471
same,Gene expression AV254764 average,[2],1.543
same,Gene expression AV327248 average,[2],1.4639
same,Gene expression BB009155 average,[2],1.3686
same,Gene expression BB027848 average,[2],−0.004367
same,Gene expression BB043558 average,[2],1.629
same,Gene expression BB046347 average,[2],0.5079
same,Gene expression BB140436 average,[2],−0.4938
same,Gene expression BB204486 average,[2],−1.371
same,Gene expression BB223872 average,[2],0.5263
same,Gene expression BB246912 average,[2],−1.2439
same,Gene expression BB275142 average,[2],0.5302
same,Gene expression BB458460 average,[2],−1.132
same,Gene expression BB463610 average,[2],1.2472
same,Gene expression BB730977 average,[2],−0.256
same,Gene expression BB743970 average,[2],0.3813
same,Gene expression BB770528 average,[2],0.8678
same,Gene expression BB781615 average,[2],0.9722
same,Gene expression BC003284 average,[2],0.7036
same,Gene expression BC004827 average,[2],−1.255
same,Gene expression BC005552 average,[2],−0.7309
same,Gene expression BC006713 average,[2],0.942
same,Gene expression BC010318 average,[2],−0.9565
same,Gene expression BC012247 average,[2],0.7954
same,Gene expression BC012955 average,[2],−1.403
same,Gene expression BC013893 average,[2],0.3479
same,Gene expression BC017615 average,[2],−2.585
same,Gene expression BC019379 average,[2],−1.263
same,Gene expression BC019882 average,[2],1.2329
same,Gene expression BC021352 average,[2],1.59
same,Gene expression BC022148 average,[2],1.0426
same,Gene expression BC025169 average,[2],−1.03
same,Gene expression BC026131 average,[2],−0.4476
same,Gene expression BC027026 average,[2],0.6995
same,Gene expression BC027121 average,[2],0.9799
same,Gene expression BC027185 average,[2],0.0776
same,Gene expression BE956581 average,[2],1.7703
same,Gene expression BF719766 average,[2],1.1094
same,Gene expression BG065754 average,[2],0.6884
same,Gene expression BG066491 average,[2],−1.6995
same,Gene expression BG076151 average,[2],0.4779
same,Gene expression BG076333 average,[2],−0.3573
same,Gene expression BG797099 average,[2],1.027
same,Gene expression BG967046 average,[2],0.6249
same,Gene expression BI651416 average,[2],1.979
same,Gene expression BI966443 average,[2],0.699
same,Gene expression BM198879 average,[2],1.579
same,Gene expression BM200015 average,[2],0.9342
same,Gene expression BM230508 average,[2],0.637
same,Gene expression BM936480 average,[2],0.1463
same,Gene expression BQ174991 average,[2],−0.6262
same,Gene expression L21027 average,[2],−1.868
same,Gene expression NM_007556 average,[2],−0.9667
same,Gene expression NM_007980 average,[2],0.412
same,Gene expression NM_007987 average,[2],0.8772
same,Gene expression NM_008522 average,[2],2.271
same,Gene expression NM_008935 average,[2],−1.772
same,Gene expression NM_009897 average,[2],1.054
same,Gene expression NM_011075 average,[2],1.1557
same,Gene expression NM_011176 average,[2],1.3047
same,Gene expression NM_011316 average,[2],0.6494
same,Gene expression NM_012006 average,[2],1.7541
same,Gene expression NM_013642 average,[2],−0.2528
same,Gene expression NM_013738 average,[2],0.4146
same,Gene expression NM_013929 average,[2],0.7449
same,Gene expression NM_018881 average,[2],0.2001
same,Gene expression NM_019738 average,[2],−2.37
same,Gene expression NM_030697 average,[2],1.271
same,Gene expression NM_053122 average,[2],−2.304
same,Gene expression NM_134147 average,[2],−1.51
same,Gene expression NM_134188 average,[2],−0.159
same,Gene expression X62701 average,[2],−0.6611
same,Gene expression data AF000969 (Cadps2),[2],−2.17
same,Gene expression data AF022072 (Grb10),[2],−1.2526
same,Gene expression data AF065917 (Lif),[2],0.6896
same,Gene expression data AF204959 (Cyp3a25 /// LOC622249),[2],1.404
same,Gene expression data AF297615 (Ggta1),[2],1.1224
same,Gene expression data AI594683 (Dmn),[2],1.048
same,Gene expression data AI596632 (Ptprg /// LOC632664),[2],−1.9945
same,Gene expression data AI987929 (Ndrg1),[2],−0.8074
same,Gene expression data AK004419 (Fbxl17),[2],−1.365
same,Gene expression data AK005731 (1700007K13Rik),[2],2.2462
same,Gene expression data AK007766 (1810044A24Rik),[2],−1.554
same,Gene expression data AK007854 (1810053B23Rik),[2],1.391
same,Gene expression data AK009736 (Gpr137b /// LOC664862 /// LOC673335),[2],−0.5076
same,Gene expression data AK010447 (Smyd3),[2],−1.2553
same,Gene expression data AK014608 (4632434l11Rik),[2],1.765
same,Gene expression data AK019979 (2610528E23Rik),[2],−2.537
same,Gene expression data AV095209 (Mthfd1l),[2],−0.8398
same,Gene expression data AV141095 (1110033M05Rik),[2],−1.295
same,Gene expression data AV173571 (1700106N22Rik),[2],−1.239
same,Gene expression data AV219418 (Ldhb),[2],0.2817
same,Gene expression data AV223474 (Zdhhc14),[2],−1.025
same,Gene expression data AV298304 (Homez),[2],1.03
same,Gene expression data AV327248 (Zfp365 /// LOC674611),[2],0.8055
same,Gene expression data AV377066 (9130221J18Rik),[2],1.0883
same,Gene expression data AW240761 (Tbc1d5),[2],−1.118
same,Gene expression data AW543460 (Pard3),[2],−0.2756
same,Gene expression data AW543723,[2],1.427
same,Gene expression data AW986246 (Maoa),[2],−0.3385
same,Gene expression data BB027848 (4732466D17Rik),[2],−0.016
same,Gene expression data BB043558 (9230114K14Rik),[2],1.671
same,Gene expression data BB275142 (AW456874),[2],1.009
same,Gene expression data BB308836 (Ppm1l),[2],−1.077
same,Gene expression data BB318221 (Zdhhc14),[2],−1.0808
same,Gene expression data BB463610 (4632434l11Rik),[2],1.7658
same,Gene expression data BB526605 (Mipol1),[2],−0.7181
same,Gene expression data BB770528 (Rai2),[2],0.7477
same,Gene expression data BB821363 (Scfd2),[2],−1.354
same,Gene expression data BC004827 (Psat1),[2],−1.0032
same,Gene expression data BC008626 (Icam1),[2],1.4158
same,Gene expression data BC010462 (BC010462),[2],0.9985
same,Gene expression data BC012247 (Dcxr),[2],0.3677
same,Gene expression data BC012260 (Psmf1),[2],1.2375
same,Gene expression data BC015270 (Hist2h3c2),[2],1.093
same,Gene expression data BC016073 (Cdkal1),[2],−1.1
same,Gene expression data BC016265 (Ube2e2),[2],−0.8797
same,Gene expression data BC019882 (Acaa1b),[2],0.4654
same,Gene expression data BC025501 (Aaas),[2],1.14
same,Gene expression data BC025837 (Sbk1),[2],0.4694
same,Gene expression data BC025915 (Cova1),[2],−0.642
same,Gene expression data BC026422 (Tgm1),[2],0.8843
same,Gene expression data BF719766 (Thyn1),[2],0.3892
same,Gene expression data BG065754 (Ccng1),[2],0.8383
same,Gene expression data BG066903 (Kif16b),[2],−0.5074
same,Gene expression data BG069873 (Gnb1l),[2],0.7276
same,Gene expression data BG070887 (Gtdc1),[2],−1.473
same,Gene expression data BG076151 (Ppm1d),[2],0.6026
same,Gene expression data BG261907 (Large),[2],−1.119
same,Gene expression data BI651416 (Cdc42bpg),[2],1.8011
same,Gene expression data BI660702 (Ell3),[2],0.4068
same,Gene expression data BM198879 (Ercc5),[2],1.61
same,Gene expression data BM230508 (A030007D23Rik),[2],0.5919
same,Gene expression data NM_007987 (Fas),[2],0.628
same,Gene expression data NM_008522 (Ltf),[2],1.055
same,Gene expression data NM_008576 (Abcc1),[2],−0.1885
same,Gene expression data NM_011176 (St14),[2],1.289
same,Gene expression data NM_011316 (Saa4),[2],0.2733
same,Gene expression data NM_012006 (Acot1),[2],1.251
same,Gene expression data NM_013866 (Zfp385),[2],0.9513
same,Gene expression data NM_018770 (Igsf4a),[2],−0.439
same,Gene expression data NM_021451 (Pmaip1),[2],1.1
same,Gene expression data NM_025770 (Atg10),[2],−1.128
same,Gene expression data NM_028803 (Gbe1),[2],−1.004
same,Gene expression data NM_030697 (Ankrd47),[2],1.8143
same,Gene expression data NM_053168 (Trim11),[2],1.268
same,Gene expression data NM_134188 (Acot2),[2],0.01207
same,Gene expression data Y15910 (Diap2),[2],−1.889
